Results on twelve compounds are retold here after patent US7091211B2, “Cyclopentyl modulators of chemokine receptor activity” (Merck & Co., Inc., priority 2003, dated 2006).

Structures can show the parent of a compound that is named as a salt. Bounds are passed on as bounds.

In this assay the target is T1, CCR3 (Homo sapiens, UniProt P51677).
T1 sequence (P51677 1-355): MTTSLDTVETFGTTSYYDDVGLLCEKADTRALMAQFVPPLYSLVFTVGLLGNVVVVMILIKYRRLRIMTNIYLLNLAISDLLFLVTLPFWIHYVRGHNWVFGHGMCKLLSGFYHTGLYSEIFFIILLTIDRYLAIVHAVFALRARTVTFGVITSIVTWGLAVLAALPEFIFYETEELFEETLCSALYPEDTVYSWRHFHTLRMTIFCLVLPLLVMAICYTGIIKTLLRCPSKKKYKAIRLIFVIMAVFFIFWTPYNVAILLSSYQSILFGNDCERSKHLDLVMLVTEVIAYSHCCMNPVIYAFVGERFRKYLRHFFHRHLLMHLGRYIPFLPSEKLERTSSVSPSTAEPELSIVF
The experiment in a line: Assay for determining CCR3 binding activity. The conditions noted are these: assay disclosed in U.S. Pat. No. 6,303,593 or 6,538,002. From the text:
Cell lines for expressing the receptor of interest include those naturally expressing the receptor, such as […] or THP-1, or a cell engineered to express a recombinant receptor, such as CHO, RBL-2H3, or HEK-293. For example, a CCR3 transfected AML14.3D10 cell line has been placed on restricted deposit with American Type Culture Collection as ATCC No. CRL-12079.
The CCR3 binding activity of representative compounds of the present invention can be determined via the assay disclosed in U.S. Pat. No. 6,303,593 or U.S. Pat. No. 6,538,002.

As to `CCc1nn(CC)c2c1C1(CC2)CCN(C[C@H]2C[C@H](N(C)[C@@H](C(=O)O)C(C)C)C[C@@H]2c2cccc(F)c2)CC1` [Example 16, N-Methyl-N-(1-(R)-3-(S)-((1,3-diethyl-5,6 dihydrospiro[cyclopentapyrazole-4(1H),4′-piperidin-1′-yl])methyl)-4-(S)-(3-fluorophenyl)cyclopent-1-yl)-(R)-valine trihydrochloride salt], the IC50 (usually the midpoint of a concentration-inhibition curve) is less than 10 µM.

With `CCc1nn(CC)c2c1CCC21CCN(C[C@H]2C[C@H]([C@H](NC(C)(C)CC)C(=O)O)C[C@@H]2c2cccc(F)c2)CC1` [Example 45, 2-(S)-(1-(R)-3-(S)-((1,3-Diethyl-4,5-dihydrospiro[cyclopentapyrazole-6(1H),4′-piperidin-1′-yl])methyl)-4-(S)-(3-fluorophenyl)cyclopent-1-yl)-2-(1,1-dimethylprop-1-ylamino)acetic acid trihydrochloride salt], the IC50 was less than 10 µM.

`CCc1nn(CC)c2c1CCC21CCN(C[C@H]2C[C@H](N(C)[C@@H](C(=O)O)C(C)C)C[C@@H]2c2ccc(F)c(F)c2)CC1` [Example 25, N-Methyl-N-(1-(R)-3-(S)-((1,3-diethyl-4,5-dihydrospiro[cyclopentapyrazole-6(1H),4′-piperidin-1′-yl])methyl)-4-(S)-(3,4-difluorophenyl)cyclopent-1-yl)-(R)-valine trihydrochloride salt]: the IC50 was less than 10 µM.

On to `CCc1nn(CC)c2c1CCC21CCN(C[C@H]2C[C@H](N(CC)[C@@H](C(=O)O)C(C)C)C[C@@H]2c2cccc(F)c2)CC1` [Example 18, N-Ethyl-N-(1-(R)-3-(S)-((1,3-diethyl-4,5-dihydrospiro[cyclopentapyrazole-6(1H),4′-piperidin-1′-yl])methyl)-4-(S)-(3-fluorophenyl)cyclopent-1-yl)-(R)-valine trihydrochloride salt], for which the concentration for half-maximal inhibition (IC50) is less than 10 µM.

The compound `CCc1onc2c1CCC21CCN(C[C@H]2C[C@H](N(C)[C@@H](C(=O)O)C(C)C)C[C@@H]2c2cccc(F)c2)CC1` [Example 12, N-Methyl-N-(1-(R)-3-(S)-((3-ethyl-4,5-dihydrospiro[6H-cyclopent[c]isoxazole-6,4′-piperidin-1′-yl])methyl)-4-(S)-(3-fluorophenyl)cyclopent-1-yl)-(R)-valine trihydrochloride salt] came in with an IC50 of less than 10 µM.

As for `CCc1c2c(nn1CC)C1(CC2)CCN(C[C@H]2C[C@H](N(C)[C@@H](C(=O)O)C(C)C)C[C@@H]2c2cccc(F)c2)CC1` [Example 2, N-Methyl-N-(1-(R)-3-(S)-((2,3-diethyl-4,5-dihydrospiro[cyclopentapyrazole-6(2H),4′-piperidin-1′-yl])methyl)-4-(S)-(3-fluorophenyl)cyclopent-1-yl)-(R)-valine trihydrochloride salt], the IC50 is less than 10 µM.

Compound `CCc1nn(CC)c2c1CCC21CCN(C[C@H]2C[C@H]([C@@H](C(=O)O)N(C)C(C)(C)CC)C[C@@H]2c2cccc(F)c2)CC1` [Example 46, 2-(S)-(1-(R)-3-(S)-((1,3-Diethyl-4,5-dihydrospiro[cyclopentapyrazole-6(1H),4′-piperidin-1′-yl])methyl)-4-(S)-(3-fluorophenyl)cyclopent-1-yl)-2-((1,1-dimethylprop-1-yl)methylamino)acetic acid trihydrochloride salt] displayed an IC50 of less than 10 µM.

In the case of `CCc1nn(C)c2c1CCC21CCN(C[C@H]2C[C@H](N(C)[C@@H](C(=O)O)C(C)C)C[C@@H]2c2cccc(F)c2)CC1` [Example 3, N-Methyl-N-(1-(R)-3-(S)-((3-ethyl-1-methyl-4,5-dihydrospiro[cyclopentapyrazole-6(1H),4′-piperidin-1′-yl])methyl)4-(S)-(3-fluorophenyl)cyclopent-1-yl)-(R)-valine trihydrochloride salt], the IC50 is less than 10 µM.

Turning to `CCc1nn(CC)c2c1CCC21CCN(C[C@H]2C[C@H](N(C)[C@@H](C(=O)O)C(C)(C)C)C[C@@H]2c2cccc(F)c2)CC1` [Example 20, N-Methyl-N-(1-(R)-3-(S)-((1,3-diethyl-4,5-dihydrospiro[cyclopentapyrazole-6(1H),4′-piperidin-1′-yl])methyl)-4-(S)-(3-fluorophenyl)cyclopent-1-yl)-(R)-t-butylglycine trihydrochloride salt], the IC50 is less than 10 µM.

Regarding `CCc1nn(CC)c2c1CCC21CCN(C[C@H]2C[C@H](N(C)[C@@H](C(=O)O)C(C)C)C[C@@H]2c2cccc(F)c2)CC1` [Example 1, N-Methyl-N-(1-(R)-3-(S)-((1,3-diethyl-4,5-dihydrospiro[cyclopentapyrazole-6(1H),4′-piperidin-1′-yl])methyl)-4-(S)-(3-fluorophenyl)cyclopent-1-yl)-(R)-valine trihydrochloride salt], the IC50 is less than 10 µM.

Regarding `CCn1cc2c(n1)CCC21CCN(C[C@H]2C[C@H](N(C)[C@@H](C(=O)O)C(C)C)C[C@@H]2c2cccc(F)c2)CC1` [Example 15, N-Methyl-N-(1-(R)-3-(S)-((2-ethyl-5,6 dihydrospiro[cyclopentapyrazole-4(2H),4′-piperidin-1′-yl])methyl)-4-(S)-(3-fluorophenyl)cyclopent-1-yl)-(R)-valine trihydrochloride salt], the IC50 is less than 10 µM.

Regarding `CCn1ncc2c1C1(CC2)CCN(C[C@H]2C[C@H](N(C)[C@@H](C(=O)O)C(C)C)C[C@@H]2c2cccc(F)c2)CC1` [Example 6, N-Methyl-N-(1-(R)-3-(S)-((1-ethyl-4,5-dihydrospiro[cyclopentapyrazole-6(1H),4′-piperidin-1′-yl])methyl)-4-(S)-(3-fluorophenyl)cyclopent-1-yl)-(R)-valine trihydrochloride salt], the IC50 is less than 10 µM.
